Three molecules from article PMC9699089 (Pathogens, 2022) can be followed below.

One may read the ΔTm as the change in melting temperature against a reference sample. What is called IC50 is the concentration needed to halve the response being measured. A word on the CC50: it is the concentration giving 50% cytotoxicity. A low value points to harm at low concentration.

Data set [1] deals with 24TTG (DNA, G4) TTGGGTTAGGGTTAGGGTTAGGGA
Put plainly: native ESI-MS. Conditions: 1 mM KCl; 100 mM TMAA; 10 µM oligonucleotide; no binding detected at 20 µM ligand.

For data set [2], the system named is DK66 (DNA, duplex) CGCGAATTCGCG
Description: native ESI-MS. Conditions: 1 mM KCl; 100 mM TMAA; 10 µM oligonucleotide; no binding detected at 20 µM ligand.

The test system of data set [3] is Pf1 (DNA, G4) GGGTTTAGGGTTTAGGGTTTAGGG
Description: native ESI-MS. To be noted: 1 mM KCl; 100 mM TMAA; 10 µM oligonucleotide; no binding detected at 20 µM ligand.

Data set [4] relates to Pf8 (DNA, G4) GGGTTCAGGGTTCAGGGTTCAGGG
Put plainly: native ESI-MS. To be noted: 1 mM KCl; 100 mM TMAA; 10 µM oligonucleotide, 20 µM ligand.

Data set [5] deals with FtrypBT (FEBR1T) (DNA, G4) GGGCAGGGGGTGATGGGGAGGAGCCAGGG
Put plainly: FRET melting. Conditions: 10 mM KCl, 90 mM LiCl; 10 mM lithium cacodylate pH 7.2; 0.2 µM oligonucleotide, 2 µM compound.

Data set [6] has as its system FPf1T (DNA, G4) GGGTTTAGGGTTTAGGGTTTAGGG
Put plainly: FRET melting. To be noted: 10 mM KCl, 90 mM LiCl; 10 mM lithium cacodylate pH 7.2; 0.2 µM oligonucleotide, 2 µM compound.

Data set [7] concerns 24nonG4 (DNA, single strand) TGGGATGCGACAGAGAGGACGGGA
Put plainly: native ESI-MS. To be noted: 1 mM KCl; 100 mM TMAA; 10 µM oligonucleotide; no binding detected at 20 µM ligand.

The subject of data set [8] is F21T (DNA, G4) GGGTTAGGGTTAGGGTTAGGG
Description: FRET melting. To be noted: 10 mM KCl, 90 mM LiCl, 10 mM lithium cacodylate pH 7.2, 0.2 µM oligonucleotide.

The subject of data set [9] is FPf8T (DNA, G4) GGGTTCAGGGTTCAGGGTTCAGGG
Description: FRET melting. Conditions: 10 mM KCl, 90 mM LiCl; 10 mM lithium cacodylate pH 7.2; 0.2 µM oligonucleotide, 2 µM compound.

Data set [10] deals with T. brucei brucei AnTat 1.9. Put plainly: In vitro antitrypanosomal activity, Alamar Blue assay. The class given is cell-based, Trypanosoma brucei brucei. The method in brief:
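Bloodstream T. brucei brucei AnTat 1.9 cultured in supplemented MEM with Earle's salts and exposed to compounds in duplicate for 69 h at 37 °C. Alamar Blue then added for 5 h, with fluorescence read at ex 530/em 590 nm.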
On the technique in general: The colour change of resazurin is a common sign of viable cells or microbes.

Data set [11] relates to L. donovani (MHOM/IN/00/DEVI) promastigotes. Put plainly: In vitro antileishmanial activity on promastigotes, MTT assay. Conditions: Leishmania donovani, 72 h incubation, mean +/- SD of three independent experiments. The class given is cell-based. In a few lines: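 Log-phase L. donovani MHOM/IN/00/DEVI promastigotes at 10^6 parasites/mL in Schneider's medium with 20% FCS were exposed to compounds for 72 h at 27 °C, final DMSO under 0.5%. Viability was read by MTT reduction over 4 h, absorbance 570 nm (630 nm reference). IC50 came from regression, three independent experiments.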
A general note: Tetrazolium dyes change colour on reduction, which living cells bring about.

Another data set deals with human HepG2 cells. Description: Cytotoxicity evaluation, MTT assay. Format: cell-based. Conditions: HepG2 cells; 72 h; mean +/- SD of three independent experiments. As for the experimental part: These cells are a commonly used human hepatocarcinoma-derived cell line that has characteristics similar to those of primary hepatocytes. These cells express many hepatocyte-specific metabolic enzymes, thus enabling the cytotoxicity of tested product metabolites to be evaluated. […] Duplicate assays were performed for each sample. Each well was microscopically examined for precipitate formation before the medium was aspirated from the wells. After aspiration, 100 µL of MTT solution (0.5 mg/mL in medium without FCS) were then added to each well. […] The MTT solution was removed, and DMSO (100 µL) was added to dissolve the resulting blue formazan crystals. Plates were shaken vigorously (300 rpm) for 5 min. The absorbance was measured at 570 nm with 630 nm as reference wavelength in a BIO-TEK ELx808 Absorbance Microplate Reader. DMSO was used as blank and doxorubicin (Sigma Aldrich) as positive control. Cell viability was calculated as percentage of control (cells incubated without compound). The CC50 was determined from the dose-response curve using TableCurve 2D V5.0 software (Systat Software, Palo Alto, CA, USA).

Data set [12] concerns human duplex sequence FdxT. Put plainly: FRET melting assay, duplex control FdxT. To be noted: tested at 0.5 μM, oligonucleotide 0.2 μM, K+ conditions. The class given is binding.
In data set [13] the test system is Plasmodium telomeric sequence FPf8T G-quadruplex. Description: FRET melting assay, FPf8T. To be noted: tested at 0.5 μM, oligonucleotide 0.2 μM, K+ conditions. The class given is binding, Plasmodium falciparum.
Data set [14] deals with human telomeric sequence F21T G-quadruplex. Put plainly: FRET melting assay, F21T. To be noted: tested at 0.5 μM, oligonucleotide 0.2 μM, K+ conditions. Format: binding.
Data set [15] has as its system FdxT (DNA, hairpin, hexaethyleneglycol linker between position 10 and 11) TATAGCTATATATAGCTATA
Put plainly: FRET melting. To be noted: 10 mM KCl, 90 mM LiCl; 10 mM lithium cacodylate pH 7.2; 0.2 µM oligonucleotide, 0.5 µM compound.

Data set [16] concerns Trypanosoma 9 and 11 chromosomic sequence FTrypBT (FEBR1T) G-quadruplex. Put plainly: FRET melting assay, FtrypBT. The class given is binding, Trypanosoma brucei brucei. Conditions: tested at 0.5 μM, oligonucleotide 0.2 μM, K+ conditions. In a few lines: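 Dual-labelled FAM/TAMRA oligonucleotides (0.2 µM) pre-folded in 10 mM lithium cacodylate pH 7.2, 10 mM KCl, 90 mM LiCl, with 2 µM compound. FAM emission (ex 492/em 516 nm) followed from 25 to 95 °C at 1 °C/min; Tm is the temperature at normalized emission 0.5, compared with and without compound.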

The test system of data set [17] is Plasmodium telomeric sequence FPf1T G-quadruplex. Description: FRET melting assay, FPf1T. The class given is binding, Plasmodium falciparum. Conditions: tested at 0.5 μM, oligonucleotide 0.2 μM, K+ conditions.

As for `c1ccc(-c2cc(CNCCc3ccccn3)nc3c2ccc2c(-c4ccccc4)cc(CNCCc4ccccn4)nc23)cc1`, the binding result in [1], in [2], in data set [3] and in data set [7] was “no” in each case. Moreover, in data set [4], the Kd1 was 83 µM. Also, the ΔTm in data set [5] is 1.8 ± 0.6 °C; in data set [6] it was 1.3 ± 0.2 °C; in data set [8] (2 µM compound) it was 1.0 ± 0.5 °C; in [9], 1.0 ± 0.2 °C.
Turning to `N=C(N)c1ccc(OCCCCCOc2ccc(C(=N)N)cc2)cc1` [Pentamidine, reference compound], the “Selectivity Index HepG2/Tryp.” value in data set [10] (SI = CC50 HepG2 / IC50 Trypanosoma brucei brucei) was 11,500. Also, the 50% inhibitory concentration (IC50) in [10] (Trypanosoma brucei, slender bloodstream trypomastigotes, AnTat 1.9 strain, mean +/- SD of three independent experiments, read-out: Trypanosoma brucei brucei IC50 Values Trypanos Antat 1.9) stood at 0.2 ± 0.06 nM; in data set [11] it was 5500 ± 800 nM. Also, it took 2300 ± 500 nM to reach half-maximal cytotoxicity with human HepG2 cells (CC50).
As to `C[n+]1cc(NC(=O)c2ccc3ccc4ccc(C(=O)Nc5cc6ccccc6[n+](C)c5)nc4c3n2)cc2ccccc21` [PhenDC3], in [12], the “ΔTm FdxT” value was determined as 0.1 °C. For the same molecule, the “ΔTm FPf8T” value in data set [13] worked out at 24.7 °C. Moreover, in data set [14], the “ΔTm F21T” value came out at 26.3 °C. The shift in melting temperature (ΔTm) in [15] came out at 0.1 ± 0.2 °C; in data set [8] (0.5 µM compound), 26.3 ± 0.1 °C. The “ΔTm FtrypBT” value in data set [16] was 19.2 °C. Moreover, the “ΔTm FPf1T” value in [17] amounted to 24.6 °C.
